Measured values reported in patent publication US9119845B2, “Method for the treatment of neurological disorders by enhancing the activity of beta-glucocerebrosidase” (Amicus Therapeautics, Inc., priority 2006, dated 2015).
Structures can show the parent of a compound that is named as a salt. Where two headings read alike, the source gives them in different places.

Columns and labels:
[1] = target: T1, GCase (Homo sapiens (Human), UniProt P04062); experiment: biochemical
[2] = target: T1, GCase; details: read-out: IC50 for GCase; printed in synthesis headings
[3] = tested on: α-synuclein; experiment: α-synuclein accumulation in brains of V394L homozygous knock-in mice treated with CBE; format: in vivo, mouse; details: CBE daily intraperitoneally for 30 days
Protocol: Mice homozygous for the point mutations D409H or V394L and expressing a low level of saposin C in a prosaposin knock-out background, were analyzed for accumulation of α-synuclein in the brain. These mice have been reported to accumulate glucosylceramide in the brain. Mice homozygous for the point mutations V394L only, were analyzed for α-synuclein accumulation with and without CBE treatment. […] Mice were administered CBE daily by interperitonally injection for 30 consequitive days ([…] calculated from the total weight of the mouse) and brains were analyzed by immunohistochemistry for accumulation of α-synuclein.
Brain tissue was frozen and fixed for immunohistochemistry with 4% paraformaldehyde and serial sections were co-labelled with anti-human α-synuclein (ab1903; Abcam, Cambridge, Mass.) and rabbit anti-ubiquitin (ab7780; Abcam, Cambridge, Mass.).

[4] = target: α-galactosidase A (Homo sapiens (Human), UniProt P06280); details: healthy volunteers, 50 mg b.i.d. and 150 mg b.i.d.; cited from earlier work
[5] = target: wild-type GCase (Mus musculus (Mouse), UniProt P17439); experiment: In vivo GCase activity in normal C57BL6 mice upon treatment with IFG
Protocol: This Example provides information on the effects of isofagomine, a GCase-specific chaperone on mice. IFG were administered to the mice at 200 mg/kg/day; organs and plasma were collected 4 weeks after initiation of the study. Ten male C57BL6 (25 g) mice per group were used. The drug was be given in the drinking water, therefore water consumption was monitored daily.
In the control group (0 mg/kg/day), the mice were dosed daily in the drinking water (no drug) and divided into two groups. Ten animals were euthanized after 4 weeks of treatment, blood was collected from the descending aorta or vena cava, and tissues were harvested and then necropsied.
In the test group, 10 mice were dosed daily in the drinking water with an administration aim of 200 mg/kg/day.
The blood samples were drawn into lithium heparin and spun for plasma. After bleeding, the spleen, lung, brain and liver were removed and placed into vials. The vials were put into dry ice for rapid freezing. The tissues and plasma were then analyzed for tissue levels of GCase.
Small portions of tissue were removed and added to 500 μl lysis buffer (20 mM sodium citrate and 40 mM disodium hydrogen phosphate, pH 4.0, including 0.1% Triton X-100). Tissues were then homogenized using a microhomogenizer for a brief time, followed by centrifugation at 10,000 rpm for 10 minutes at 4° C. Supernatants were transferred to a new tube and used for the enzyme assay.
The enhancement ratio is equal to the activity with the compound over the activity without the compound.

[6] = Phase I studies in healthy volunteers: pharmacokinetics of oral IFG tartrate; format: in vivo, human; details: for half-life: both sexes, human, plasma
Protocol: (§1) In a first-in-human single ascending dose study (1a), doses of 8, 25, 75, 150 (two cohorts), and 300 mg were administered (6 active, 2 placebo in each cohort). In a multiple ascending dose study (1b), doses of 25, 75, and 225 mg were administered daily for seven days (6 active, 2 placebo in each cohort). In both studies, of the eight subjects in each group; six were randomized to receive IFG tartrate, and two subjects received placebo. Subjects were confined from the evening of day-1 until 24 hrs after completion of dosing. In the phase 1a study subjects returned at 48 hrs (PK sampling) and 7 days (safety follow-up) following dosing. In the phase 1b study subjects returned at 48 h (PD sampling), 7 days (PD sampling and safety follow-up), and 14 days (PD sampling) following the last dose
Subjects were healthy male and female volunteers between 19 and 55 years of age (inclusive) consisting of members of the community at large.
Blood samples (10 mL each) were collected in blood collection tubes containing EDTA before dosing was determined at regular intervals for the phas 1a during 48 hr following dosing. In the phase 1b study a full IFG tartrate pharmacokinetic profile was determined for 24 hr following the first dose, Cmin values were obtained pre-dose on day 6 and 7, and another full profile was determined for 24 hr following the final, day 7, dose.
(§2) GCase activity was determined pre-dose on days 1, 3, 5, 7, 9, 14, and 21. Blood samples were cooled in an ice bath and centrifuged under refrigeration as soon as possible. Plasma samples were divided into two aliquots and stored at […] pending assay. At the end of the study, all samples were transferred to MDS Pharma Services Analytical Laboratories (Lincoln) for analysis.

[7] = target: T1, GCase; experiment: Phase I multiple-dose study: GCase enzymatic activity in healthy volunteers; format: in vivo; details: dose-related, during treatment period, FIG. 2
Protocol: as §1, §2

[8] = Phase I studies in healthy volunteers: safety and tolerability; format: in vivo, human; details: both Phase I studies
Protocol: as §1, with “last dose […]” for “last dose”
Safety was determined by evaluating vital signs, laboratory parameters (serum chemistry, hematology, and urinalysis), physical examination and by recording adverse events during the Treatment Period.
Safety data including laboratory evaluations, physical exams, adverse events, ECG monitoring and vital signs assessments were summarized by treatment group and point of time of collection. Descriptive statistics (arithmetic mean, standard deviation, median, minimum and maximum) were calculated for quantitative safety data as well as for the difference to baseline. […]

[9] = tested on: α-synuclein; experiment: α-synuclein immunohistochemistry in brains of transgenic mice over-expressing human α-synuclein; format: in vivo, mouse
Protocol: 48 transgenic animals (male and female) were allocated to 6 groups (n=8) at an age of 5 to 6 weeks concerning baseline and 3 to 4 weeks, respectively concerning all other treatment groups at treatment start. One group of transgenic animals served as baseline group (5 weeks old) and was sacrificed untreated on day 0. One group of transgenic animals was treated with vehicle.
Mice (ages 3-4 weeks) were treated once daily (orally) at either 2 mg/kg; 20 mg/kg; or 200 mg/kg of IFG tartrate for 3 months. One group also was treated once every other day at 20 mg/kg.
Animals of the baseline group were sacrificed at an age of 5 weeks. All other animals were sacrificed at the end of the 3 months treatment period and blood for preparation of serum and macrophages as well as lung, brain and CSF were extracted. Therefore, all mice were sedated by standard inhalation anesthesia (Isofluran, Baxter). Cerebrospinal fluid was obtained by blunt dissection and exposure of the foramen magnum. Upon exposure, a Pasteur pipette was inserted to the approximate depth of 0.3-1 mm into the foramen magnum. CSF was collected by suctioning and capillary action until flow fully ceases. CSF was immediately frozen and kept at −80° C.
The brains were removed and hemisected. The right hemispheres of all mice were immersion fixed in freshly produced 4% paraformaldehyde/PBS (pH 7.4) for one hour at room temperature. Thereafter brains were transferred to a 15% sucrose PBS solution for 24 hours to ensure cryoprotection. On the next day brains were frozen in liquid isopentane and stored at −80° C. until used for histological investigations. To determine the effects of the IFG-tartrate treatment from 8 animals per group 10 μm-thick cryosections were cut for determination of alpha-synuclein pathology. All organs and tissues mentioned were sampled and from specific brain regions i.e. hippocampus, midbrain, frontal cortex and striatum of one hemibrain were extracted and frozen. The other brain half was processed for histological evaluation.
For evaluation of the number of α-synuclein positive cells and Lewy body like inclusions an immunohistochemical staining was carried out using the monoclonal human alpha-synuclein specific antibody (Alexis®; Cat #804-258-L001), dilution 1:5, detected with secondary Cy2 antibody (Jackson Immunoresearch®). The number of alpha-synuclein positive cells in five different layers, one slice per layer, was counted for evaluation in the whole hippocampus and cortex separately.
Briefly, samples were washed for 10 min with PBS at room temperature, followed by fixing for 30 min at room temperature with 4% paraformaldehyde, followed by washing 2 times for 5 min each with PBS at room temperature. For Proteinase K-treated sections, sections were incubated in PBS containing 10 μg/ml proteinase-K for 10 minutes at room temperature. Next, samples were incubated for 15 min at room temperature with blocking solution to block endogenous peroxidase, followed by two more 5 min washes with PBS. Samples were then incubated for 60 min at room temperature with a blocking reagent to block non-specific binding, followed by two more 5 min washes with PBS. Samples were then incubated with M.O.M. diluent for 5 min at room temperature, followed by incubation with the primary antibody (dilution 1:5 in M.O.M. diluent) for 60 min with at room temperature.
After an hour, samples were washed 2 times for 5 min with PBS at room temperature, and incubated for another 60 min at room temperature with blocking reagent. Following two washes, samples were incubated with secondary Ab Cy 2-Goat Anti-Rat (Dilution 1:200 in M.O.M.) for 60 minutes at room temperature, in the absence of light. Samples were then washed for 5 min with PBS, for 5 min with sterile, molecular-biology grade water, and covered with polyvinyl alcohol.
For evaluation of the α-synuclein immunoreactivity, specialized image analysis software (Image Pro Plus, version 4.5.1.29) was used. […]

[10] = normal C57BL6 mice, 200 mg/kg/day in drinking water, FIG. 1

T1 sequence (P04062 40-536): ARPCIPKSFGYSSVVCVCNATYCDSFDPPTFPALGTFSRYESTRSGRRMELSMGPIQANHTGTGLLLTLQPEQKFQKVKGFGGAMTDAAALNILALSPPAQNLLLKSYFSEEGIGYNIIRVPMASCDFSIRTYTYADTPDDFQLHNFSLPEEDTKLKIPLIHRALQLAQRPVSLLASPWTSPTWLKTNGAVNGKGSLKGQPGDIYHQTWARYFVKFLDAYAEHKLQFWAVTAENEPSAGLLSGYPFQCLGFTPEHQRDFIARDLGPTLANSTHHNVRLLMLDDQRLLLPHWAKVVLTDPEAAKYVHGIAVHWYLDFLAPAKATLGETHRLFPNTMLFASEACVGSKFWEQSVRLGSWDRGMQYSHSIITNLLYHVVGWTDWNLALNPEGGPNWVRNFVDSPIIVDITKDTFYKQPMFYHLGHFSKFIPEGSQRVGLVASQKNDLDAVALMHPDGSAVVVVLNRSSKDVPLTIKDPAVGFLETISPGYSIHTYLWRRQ
Sequence of wild-type GCase (P17439 20-515): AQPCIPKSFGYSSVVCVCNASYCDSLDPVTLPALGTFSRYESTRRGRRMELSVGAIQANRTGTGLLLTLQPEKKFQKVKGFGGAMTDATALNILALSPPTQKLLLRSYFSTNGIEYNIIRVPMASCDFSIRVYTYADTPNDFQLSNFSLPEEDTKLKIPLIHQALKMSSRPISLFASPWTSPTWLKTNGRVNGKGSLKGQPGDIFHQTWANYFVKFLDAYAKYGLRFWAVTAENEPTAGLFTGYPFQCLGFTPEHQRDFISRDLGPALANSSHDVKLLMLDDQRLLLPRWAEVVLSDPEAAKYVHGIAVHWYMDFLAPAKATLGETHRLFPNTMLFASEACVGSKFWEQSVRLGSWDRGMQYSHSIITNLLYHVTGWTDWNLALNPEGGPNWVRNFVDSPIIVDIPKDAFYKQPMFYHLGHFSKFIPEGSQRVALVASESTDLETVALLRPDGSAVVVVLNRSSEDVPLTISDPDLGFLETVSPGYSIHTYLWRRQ
Sequence of α-galactosidase A (P06280 32-429): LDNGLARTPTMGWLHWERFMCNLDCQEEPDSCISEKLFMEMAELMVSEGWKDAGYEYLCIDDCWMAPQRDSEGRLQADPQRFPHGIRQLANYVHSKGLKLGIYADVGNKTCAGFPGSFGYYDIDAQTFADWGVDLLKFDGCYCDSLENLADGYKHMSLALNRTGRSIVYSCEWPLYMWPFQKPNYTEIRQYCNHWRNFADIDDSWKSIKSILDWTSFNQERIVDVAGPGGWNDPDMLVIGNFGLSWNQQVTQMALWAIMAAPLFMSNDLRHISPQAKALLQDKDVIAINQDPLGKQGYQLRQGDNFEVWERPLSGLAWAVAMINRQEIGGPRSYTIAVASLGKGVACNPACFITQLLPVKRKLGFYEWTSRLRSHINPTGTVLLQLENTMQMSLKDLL

CC(C)(C)CCc1cn2c(n1)[C@H](O)[C@@H](O)[C@H](O)[C@H]2CO [(5R,6R,7S,8S)-5-Hydroxymethyl-2-(3,3-dimethylbutyl)-5,6,7,8-tetrahydro-imidazo[1,2-a]pyridine-6,7,8-triol]
IC50 [1]: ~0.03 nM

CCCCCCCCc1cn2c(n1)[C@H](O)[C@@H](O)[C@H](O)[C@H]2CO [(5R,6R,7S,8S)-5-Hydroxymethyl-2-n-octyl-5,6,7,8-tetrahydroimidazo[1,2-a]pyridine-6,7,8-triol]
IC50 [1]: ~0.07 nM

CC(C)(C)C#Cc1cn2c(n1)[C@H](OCc1ccccc1)[C@@H](OCc1ccccc1)[C@H](OCc1ccccc1)[C@H]2COCc1ccccc1 [(5R,6R,7S,8S)-6,7,8-Tris(benzyloxy)-5-[(benzyloxy)methyl]-2-(3,3-dimethylbyt-1-ynyl)-5,6,7,8-tetrahydroimidazo[1,2-a]pyridine]
IC50 [2]: ~1.1 nM

O[C@H]1[C@H](O)[C@@H](O)[C@@H]2O[C@@H]2[C@@H]1O [CBE, conduritol-β-epoxide]
α-synuclein in the brain [3]: resulted in accumulation of α-synuclein in the brain

OC[C@H]1NC[C@H](O)[C@@H](O)[C@H]1O [DGJ, 1-deoxygalactonojirimycin]
α-galactosidase A activity in white blood cells [4]: dose-dependent increase

OC[C@H]1CNC[C@@H](O)[C@@H]1O [IFG, (3R,4R,5R)-5-(hydroxymethyl)-3,4-piperidinediol]
GCase levels in brain [5, 10]: increased | GCase levels in liver [5, 10]: increased | GCase levels in lung [5, 10]: increased | GCase levels in spleen [5, 10]: increased | wild-type GCase activity, dose response ([5]; separate experiment, mice treated with 0, 1, 10, or 100 mg/kg/day): linear dose-response increase | half-life ([6]; oral, repeated doses of 25 to 225 mg, read-out: mean half-lives): 5.14 to 19.9 h | accumulation based on AUC and Cmax comparisons on Day 1 and Day 7 ([6]; repeated doses of 25 to 225 mg): Minimal accumulation | increase in GCase enzyme levels above baseline [7]: approximately 3.5 fold

OC[C@H]1CNC[C@@H](O)[C@@H]1O [isofagomine tartrate]
serious adverse events [8]: No serious adverse events occurred | tolerability ([8]; all doses): generally well tolerated | half-life ([6]; single-dose study, oral, read-out: plasma elimination half-life (converted)): 14 h | systemic exposure via the oral route ([6]; healthy volunteers, oral): good systemic exposure | pharmacokinetic behavior and accumulation after 7 days of oral administration ([6]; multiple-dose study, 25, 75, 225 mg daily for seven days): linear with dose, with no unexpected accumulation | plasma AUC and Cmax versus dose ([6]; single-dose study, 8 to 300 mg oral): linearly correlated with administered dose | time at which mean plasma levels peaked ([6]; single-dose study, oral): 3.4 h | α-synuclein positive cell load versus baseline, both regions averaged ([9]; 2 mg/kg daily for 3 months, p>0.05 versus baseline): prevented mice from the age-accompanied increase of pathology | number of α-synuclein immunoreactive cells in the hippocampus versus vehicle-treated controls ([9]; 2 mg/kg once daily orally for 3 months, p<0.05, FIG. 6B): reduced the number of immunoreactive cells in the hippocampus significantly | α-synuclein pathology versus controls at 20 mg dose ([9]; 20 mg/kg daily or every other day for 3 months): not effective versus controls | accumulation of Proteinase K resistant α-synuclein aggregates ([9]; 20 mg/kg, 3 months, single responding animal, FIG. 5): prevents the accumulation of these α-synuclein aggregates | qualitative α-synuclein staining in cortex and hippocampus ([9]; 2 and 20 mg/kg b.w. daily, some of the treated animals, FIGS. 3 and 4): strongly decreased background and decreased α-synuclein positive cell numbers | α-synuclein pathology in the cortex ([9]; oral treatment for 3 months, FIG. 6A): did not reach significance level
